From PubChem BioAssay AID624285 (Broad Institute, 2012)
Active and inactive are the calls of the source.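 Rule for the calls: active = signal-decreasing dose-response curve whose fitted half-maximal concentration is at or below twice the highest valid tested dose; inconclusive = flat fit at 30 to 70% signal loss, or poor fit; inactive = the rest.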

The compounds below were run on NIH3T3/HeLa viability, CellTiter-Glo ATP luminescence, 24 h (assay: cell viability loss after compound exposure – 24 h, luminescence, cherry-picked samples, cytotoxicity control for PDI inhibitor project, dose response (AID 624285)).

Compound | AC50
O=C(CCS(=O)(=O)c1ccccc1)N(CCCN1CCOCC1)c1nc2ccccc2s1 | 14.2 µM
O=C(Nc1ccc(Br)cc1F)c1cccnc1 | > 70 µM (inactive)
C[C@@H]1CN([C@H](C)CO)C(=O)c2cccc(NS(C)(=O)=O)c2O[C@@H]1CN(C)Cc1ccc(Oc2ccccc2)cc1 | > 70 µM (inactive)
